Reference: ChEMBL document CHEMBL1127436, “[(3-Pyridylalkyl)piperidylidene]benzocycloheptapyridine derivatives as dual antagonists of PAF and histamine” (J Med Chem, 1994)

Tests used:
Type in all cases: functional
Mus musculus [1] = organism: Mus musculus; assay: Dose required to inhibit PAF-induced mortality; conditions: read-out: ID50 (the source's name)
Oryctolagus cuniculus = organism: Oryctolagus cuniculus; assay: Concentration required to inhibit PAF-induced maximum aggregation
Rattus norvegicus [2] = assay: Intravenous dose required to reduce the lowering of the arterial blood pressure caused by PAF; conditions: for ED50: Rattus norvegicus, Arterial blood, iv, read-out: ID50 (the source's name)
Mus musculus [3] = assay: Antiallergic activity was evaluated using active anaphylactic test after po administration of 10 (mg/kg) in mice
Cavia porcellus [4] = organism: Cavia porcellus; assay: Tested for concentration required to inhibit H1 histamine -induced guinea pig ileum contraction
Mus musculus [5] = assay: Antiallergic activity was evaluated using active anaphylactic test after po administration in mice; conditions: read-out: ID50 (the source's name)
Cavia porcellus [6] = organism: Cavia porcellus; assay: Tested for concentration required to inhibit histamine -induced ileum contraction
Rattus norvegicus [7] = assay: Tested at 10 (mg/kg) intravenous dose for percent inhibition of the arterial blood pressure in normotensive rats caused by histamine

Row | Structure (SMILES) | ED50 (Mus musculus [1]) [mg/kg] | IC50 (Oryctolagus cuniculus) [nM] | ED50 (Rattus norvegicus [2]) [mg/kg] | Inhibition (Mus musculus [3]) [%] | ID50 (Rattus norvegicus [2]) [mg/kg] | IC50 (Cavia porcellus [4]) [nM] | ED50 (Mus musculus [5]) [mg/kg] | IC50 (Cavia porcellus [6]) [nM] | Inhibition (Rattus norvegicus [7]) [%]
1 | CSc1ncccc1C(=O)N1CCC(=C2c3ccc(Cl)cc3CCc3cccnc32)CC1 | > 30 | 20000 | > 5 | 50 |  |  |  |  | 
2 | COc1ccc(C(=O)N2CCC(=C3c4ccc(Cl)cc4CCc4cccnc43)CC2)cn1 | 30 | > 100000 |  |  | > 5 | 34 | 5.5 |  | 
3 | O=C(c1cccnc1O)N1CCC(=C2c3ccc(Cl)cc3CCc3cccnc32)CC1 | > 30 | > 100000 |  | 56 |  |  |  |  | 
4 | O=C(c1cccnc1Cl)N1CCC(=C2c3ccc(Cl)cc3CCc3cccnc32)CC1 |  | > 100000 |  |  |  |  | > 30 | 130 | 
5 | O=C(c1ccc(Cl)nc1)N1CCC(=C2c3ccc(Cl)cc3CCc3cccnc32)CC1 | 20 | > 100000 | > 1 |  |  |  | 1.9 | 64 | 
6 | Cc1cncc(C(=O)N2CCC(=C3c4ccc(Cl)cc4CCc4cccnc43)CC2)c1 |  | 3100 | > 5 |  |  | 350 | 12 |  | 
7 | COc1ccc(CN2CCC(=C3c4ccc(Cl)cc4CCc4cccnc43)CC2)cn1 | < 30 | 37000 |  |  |  | 380 | 5.9 |  | 
8 | Clc1ccc2c(c1)CCc1cccnc1C2=C1CCN(Cc2ccncc2)CC1 |  | 1800 |  |  |  | 94 | 6.1 |  | 85.1
9 | COC(=O)c1ccncc1C(=O)N1CCC(=C2c3ccc(Cl)cc3CCc3cccnc32)CC1 | > 30 | 17000 | > 5 |  |  |  | 11 |  | 
10 | CC(c1cccnc1)N1CCC(=C2c3ccc(Cl)cc3CCc3cccnc32)CC1.Cl (configuration not stated) | > 30 | 8200 | > 5 |  |  |  | > 30 |  | 
11 | Cl.Clc1ccc2c(c1)CCc1cccnc1C2=C1CCN(CCc2cccnc2)CC1 | > 30 | 34000 | > 5 |  |  | 360 | > 30 |  | 95.4
12 | Cc1ccc(CN2CCC(=C3c4ccc(Cl)cc4CCc4cccnc43)CC2)cn1.Cl |  | 9000 |  |  |  | 37 | 12 |  | 96.4
13 | COC(=O)c1cncc(CN2CCC(=C3c4ccc(Cl)cc4CCc4cccnc43)CC2)c1.Cl |  | > 100000 | > 5 |  |  | 190 |  |  | 
14 | Clc1ccc2c(c1)CCc1cccnc1C2=C1CCN(Cc2cncc(Br)c2)CC1 | 10 | 720 |  |  |  | 280 | 17 |  | 61.9
15 | O=C(c1cncc(Br)c1)N1CCC(=C2c3ccc(Cl)cc3CCc3cccnc32)CC1 | > 30 | 3400 | > 5 |  |  |  | > 30 |  | 
